Test [1] deals with Epidermal growth factor receptor (Homo sapiens) (UniProt P00533). As to the kind of experiment: Inhibition of human recombinant EGFR at 15 nM in presence of ATP by radiometric assay relative to control.
The target of test [2] is T1, Muscle, skeletal receptor tyrosine-protein kinase (Homo sapiens) (UniProt O15146).
T1 sequence (whole entry): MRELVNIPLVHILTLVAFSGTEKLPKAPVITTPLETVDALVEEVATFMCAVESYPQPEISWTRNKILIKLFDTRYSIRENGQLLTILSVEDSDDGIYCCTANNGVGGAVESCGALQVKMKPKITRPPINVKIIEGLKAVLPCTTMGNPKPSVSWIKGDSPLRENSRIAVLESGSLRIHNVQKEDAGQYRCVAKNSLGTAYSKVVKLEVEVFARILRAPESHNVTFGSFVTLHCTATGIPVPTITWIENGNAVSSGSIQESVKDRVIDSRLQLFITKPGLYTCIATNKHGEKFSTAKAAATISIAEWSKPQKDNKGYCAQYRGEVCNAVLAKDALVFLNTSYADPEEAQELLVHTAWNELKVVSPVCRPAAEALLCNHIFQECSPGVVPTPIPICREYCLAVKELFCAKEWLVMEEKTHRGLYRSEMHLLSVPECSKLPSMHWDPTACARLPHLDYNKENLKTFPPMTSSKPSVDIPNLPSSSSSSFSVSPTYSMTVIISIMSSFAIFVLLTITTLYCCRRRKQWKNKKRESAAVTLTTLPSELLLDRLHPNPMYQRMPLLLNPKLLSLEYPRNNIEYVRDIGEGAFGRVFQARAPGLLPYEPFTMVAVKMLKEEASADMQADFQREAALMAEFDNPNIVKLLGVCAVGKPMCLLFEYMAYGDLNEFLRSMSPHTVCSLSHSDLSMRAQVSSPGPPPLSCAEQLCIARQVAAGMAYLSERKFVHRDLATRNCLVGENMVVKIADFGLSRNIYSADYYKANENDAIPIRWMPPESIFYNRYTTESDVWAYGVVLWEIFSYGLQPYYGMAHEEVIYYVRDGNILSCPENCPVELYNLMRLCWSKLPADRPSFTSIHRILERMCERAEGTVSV
Nature of the test: Inhibition of human recombinant MUSK at 15 nM related to control ULK1.

The target in test [3] is T2, Rhodopsin kinase GRK1 (Homo sapiens) (UniProt Q15835).
T2 sequence (whole entry): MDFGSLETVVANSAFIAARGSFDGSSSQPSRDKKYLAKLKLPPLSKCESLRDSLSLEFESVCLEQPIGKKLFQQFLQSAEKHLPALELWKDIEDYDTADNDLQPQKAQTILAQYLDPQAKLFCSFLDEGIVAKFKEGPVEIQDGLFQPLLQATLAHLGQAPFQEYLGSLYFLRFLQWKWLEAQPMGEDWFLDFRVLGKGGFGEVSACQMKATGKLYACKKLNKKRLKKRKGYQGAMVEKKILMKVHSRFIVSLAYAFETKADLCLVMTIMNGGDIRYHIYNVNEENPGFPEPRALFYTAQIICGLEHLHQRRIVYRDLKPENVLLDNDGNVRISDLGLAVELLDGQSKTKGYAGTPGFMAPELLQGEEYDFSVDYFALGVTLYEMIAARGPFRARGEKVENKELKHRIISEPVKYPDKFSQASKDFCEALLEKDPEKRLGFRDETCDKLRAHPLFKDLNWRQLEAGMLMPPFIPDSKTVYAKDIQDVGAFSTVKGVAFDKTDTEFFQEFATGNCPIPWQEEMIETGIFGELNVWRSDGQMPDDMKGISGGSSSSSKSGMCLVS
As to the kind of experiment: Inhibition of human recombinant RHOK at 15 nM related to control ULK1.

In test [4] the target is Protein-tyrosine kinase 6 (Homo sapiens) (UniProt Q13882). Nature of the test: Inhibition of human recombinant BRK at 40 nM related to control ULK1.
For test [5], the target named is T3, Mitogen-activated protein kinase 12 (Homo sapiens) (UniProt P53778).
T3 sequence (whole entry): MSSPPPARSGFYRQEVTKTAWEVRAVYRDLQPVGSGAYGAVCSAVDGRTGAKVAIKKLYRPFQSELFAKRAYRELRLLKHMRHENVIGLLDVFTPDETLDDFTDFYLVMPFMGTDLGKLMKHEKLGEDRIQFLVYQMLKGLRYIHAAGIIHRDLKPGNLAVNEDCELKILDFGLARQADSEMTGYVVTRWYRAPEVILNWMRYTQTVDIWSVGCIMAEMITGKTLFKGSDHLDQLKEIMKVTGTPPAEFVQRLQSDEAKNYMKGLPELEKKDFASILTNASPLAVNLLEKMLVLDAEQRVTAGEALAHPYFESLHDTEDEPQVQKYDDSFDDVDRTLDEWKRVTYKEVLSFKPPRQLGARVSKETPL
As to the kind of experiment: Inhibition of human recombinant p38gamma at 40 nM related to control ULK1.

The target in test [6] is Platelet-derived growth factor receptor alpha (Homo sapiens) (UniProt P16234). As to the kind of experiment: Inhibition of human recombinant PDGFRa at 40 nM related to control ULK1.
Test [7] addresses Protein-tyrosine kinase 2-beta (Homo sapiens) (UniProt Q14289). Nature of the test: Inhibition of human recombinant PYK2 at 40 nM related to control ULK1.
Test [8] deals with T4, Serine/threonine-protein kinase NLK (Homo sapiens) (UniProt Q9UBE8).
T4 sequence (whole entry): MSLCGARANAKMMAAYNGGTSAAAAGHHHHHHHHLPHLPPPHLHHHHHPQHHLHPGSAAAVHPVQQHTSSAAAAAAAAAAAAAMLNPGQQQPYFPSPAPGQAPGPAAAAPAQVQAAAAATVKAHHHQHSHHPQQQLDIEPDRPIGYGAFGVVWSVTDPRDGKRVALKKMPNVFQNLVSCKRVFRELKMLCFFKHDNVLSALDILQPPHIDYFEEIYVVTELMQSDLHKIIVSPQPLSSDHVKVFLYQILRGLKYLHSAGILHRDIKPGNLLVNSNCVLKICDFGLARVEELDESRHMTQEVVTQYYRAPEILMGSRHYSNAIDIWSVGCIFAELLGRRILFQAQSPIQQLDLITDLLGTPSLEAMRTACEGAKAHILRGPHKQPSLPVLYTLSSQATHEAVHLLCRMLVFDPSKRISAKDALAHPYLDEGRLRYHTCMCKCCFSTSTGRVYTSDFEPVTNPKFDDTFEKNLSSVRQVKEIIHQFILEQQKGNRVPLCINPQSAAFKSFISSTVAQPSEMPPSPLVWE
As to the kind of experiment: Inhibition of human recombinant NLK at 500 nM in presence of ATP by radiometric assay relative to control.

Sequence of Protein-tyrosine kinase 6 (Homo sapiens) (Q13882 whole entry, looked up): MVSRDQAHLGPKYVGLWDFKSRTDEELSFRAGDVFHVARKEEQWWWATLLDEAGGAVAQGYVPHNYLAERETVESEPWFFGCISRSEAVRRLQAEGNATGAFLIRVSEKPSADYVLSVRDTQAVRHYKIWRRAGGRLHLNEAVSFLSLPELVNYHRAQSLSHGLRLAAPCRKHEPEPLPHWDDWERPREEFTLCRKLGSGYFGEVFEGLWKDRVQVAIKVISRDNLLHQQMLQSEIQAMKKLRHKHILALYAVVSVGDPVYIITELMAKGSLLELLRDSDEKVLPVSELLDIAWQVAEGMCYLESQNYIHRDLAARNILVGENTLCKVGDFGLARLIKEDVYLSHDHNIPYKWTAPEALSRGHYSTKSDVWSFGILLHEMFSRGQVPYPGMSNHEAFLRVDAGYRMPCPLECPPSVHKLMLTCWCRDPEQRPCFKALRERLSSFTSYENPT
Sequence of Protein-tyrosine kinase 2-beta (Homo sapiens) (Q14289 whole entry, looked up): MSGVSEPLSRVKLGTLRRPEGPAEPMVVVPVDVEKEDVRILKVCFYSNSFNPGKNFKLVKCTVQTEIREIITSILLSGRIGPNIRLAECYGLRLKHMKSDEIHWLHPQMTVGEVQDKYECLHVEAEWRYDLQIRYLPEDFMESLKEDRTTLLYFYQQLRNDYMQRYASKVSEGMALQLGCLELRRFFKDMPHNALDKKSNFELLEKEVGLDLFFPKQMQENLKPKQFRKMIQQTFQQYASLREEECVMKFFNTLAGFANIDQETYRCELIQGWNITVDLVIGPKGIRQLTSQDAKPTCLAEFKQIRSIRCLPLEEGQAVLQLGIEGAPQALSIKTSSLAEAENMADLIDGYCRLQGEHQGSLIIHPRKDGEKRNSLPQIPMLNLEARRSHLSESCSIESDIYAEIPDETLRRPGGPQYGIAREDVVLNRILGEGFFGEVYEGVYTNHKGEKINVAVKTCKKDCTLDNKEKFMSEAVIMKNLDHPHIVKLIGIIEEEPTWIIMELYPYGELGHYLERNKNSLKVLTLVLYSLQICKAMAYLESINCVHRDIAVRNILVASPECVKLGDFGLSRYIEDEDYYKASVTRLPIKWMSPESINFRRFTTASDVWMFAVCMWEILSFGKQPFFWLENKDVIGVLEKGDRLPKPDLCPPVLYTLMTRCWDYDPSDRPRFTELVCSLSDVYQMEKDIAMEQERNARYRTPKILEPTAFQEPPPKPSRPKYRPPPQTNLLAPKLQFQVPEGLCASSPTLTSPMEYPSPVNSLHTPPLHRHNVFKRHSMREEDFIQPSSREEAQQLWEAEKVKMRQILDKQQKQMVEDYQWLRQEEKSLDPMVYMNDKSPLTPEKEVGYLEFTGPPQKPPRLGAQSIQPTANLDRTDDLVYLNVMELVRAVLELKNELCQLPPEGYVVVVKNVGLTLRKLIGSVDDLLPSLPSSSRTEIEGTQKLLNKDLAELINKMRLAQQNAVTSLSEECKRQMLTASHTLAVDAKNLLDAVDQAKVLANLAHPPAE
Sequence of Platelet-derived growth factor receptor alpha (Homo sapiens) (P16234 whole entry): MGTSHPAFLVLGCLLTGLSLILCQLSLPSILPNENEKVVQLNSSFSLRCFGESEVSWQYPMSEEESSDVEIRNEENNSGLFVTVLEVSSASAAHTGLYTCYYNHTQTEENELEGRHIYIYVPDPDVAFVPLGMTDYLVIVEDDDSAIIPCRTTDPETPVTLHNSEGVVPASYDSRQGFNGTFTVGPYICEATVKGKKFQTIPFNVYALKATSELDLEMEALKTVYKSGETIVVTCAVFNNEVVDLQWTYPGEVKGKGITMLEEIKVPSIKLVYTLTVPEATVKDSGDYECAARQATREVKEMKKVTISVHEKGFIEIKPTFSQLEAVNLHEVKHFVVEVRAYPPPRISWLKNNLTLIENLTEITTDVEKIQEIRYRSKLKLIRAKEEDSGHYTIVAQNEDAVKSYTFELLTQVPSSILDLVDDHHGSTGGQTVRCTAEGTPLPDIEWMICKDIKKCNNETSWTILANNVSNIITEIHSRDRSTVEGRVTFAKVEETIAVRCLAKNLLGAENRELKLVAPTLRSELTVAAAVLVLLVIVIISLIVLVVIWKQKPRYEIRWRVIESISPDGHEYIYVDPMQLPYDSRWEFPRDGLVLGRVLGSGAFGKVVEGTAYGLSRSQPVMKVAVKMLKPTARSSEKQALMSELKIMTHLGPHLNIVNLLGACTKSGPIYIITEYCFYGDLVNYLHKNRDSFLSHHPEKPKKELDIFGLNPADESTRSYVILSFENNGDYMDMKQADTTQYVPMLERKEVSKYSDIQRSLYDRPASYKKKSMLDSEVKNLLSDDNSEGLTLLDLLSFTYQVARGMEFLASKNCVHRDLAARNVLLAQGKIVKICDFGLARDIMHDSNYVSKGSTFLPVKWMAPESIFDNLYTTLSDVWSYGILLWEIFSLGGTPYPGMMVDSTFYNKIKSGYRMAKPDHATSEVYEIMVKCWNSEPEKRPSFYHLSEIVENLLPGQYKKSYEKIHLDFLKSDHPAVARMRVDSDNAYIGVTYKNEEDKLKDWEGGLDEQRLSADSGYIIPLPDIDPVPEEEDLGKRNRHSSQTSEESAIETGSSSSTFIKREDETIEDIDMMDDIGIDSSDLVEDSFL
Sequence of Epidermal growth factor receptor (Homo sapiens) (P00533 whole entry): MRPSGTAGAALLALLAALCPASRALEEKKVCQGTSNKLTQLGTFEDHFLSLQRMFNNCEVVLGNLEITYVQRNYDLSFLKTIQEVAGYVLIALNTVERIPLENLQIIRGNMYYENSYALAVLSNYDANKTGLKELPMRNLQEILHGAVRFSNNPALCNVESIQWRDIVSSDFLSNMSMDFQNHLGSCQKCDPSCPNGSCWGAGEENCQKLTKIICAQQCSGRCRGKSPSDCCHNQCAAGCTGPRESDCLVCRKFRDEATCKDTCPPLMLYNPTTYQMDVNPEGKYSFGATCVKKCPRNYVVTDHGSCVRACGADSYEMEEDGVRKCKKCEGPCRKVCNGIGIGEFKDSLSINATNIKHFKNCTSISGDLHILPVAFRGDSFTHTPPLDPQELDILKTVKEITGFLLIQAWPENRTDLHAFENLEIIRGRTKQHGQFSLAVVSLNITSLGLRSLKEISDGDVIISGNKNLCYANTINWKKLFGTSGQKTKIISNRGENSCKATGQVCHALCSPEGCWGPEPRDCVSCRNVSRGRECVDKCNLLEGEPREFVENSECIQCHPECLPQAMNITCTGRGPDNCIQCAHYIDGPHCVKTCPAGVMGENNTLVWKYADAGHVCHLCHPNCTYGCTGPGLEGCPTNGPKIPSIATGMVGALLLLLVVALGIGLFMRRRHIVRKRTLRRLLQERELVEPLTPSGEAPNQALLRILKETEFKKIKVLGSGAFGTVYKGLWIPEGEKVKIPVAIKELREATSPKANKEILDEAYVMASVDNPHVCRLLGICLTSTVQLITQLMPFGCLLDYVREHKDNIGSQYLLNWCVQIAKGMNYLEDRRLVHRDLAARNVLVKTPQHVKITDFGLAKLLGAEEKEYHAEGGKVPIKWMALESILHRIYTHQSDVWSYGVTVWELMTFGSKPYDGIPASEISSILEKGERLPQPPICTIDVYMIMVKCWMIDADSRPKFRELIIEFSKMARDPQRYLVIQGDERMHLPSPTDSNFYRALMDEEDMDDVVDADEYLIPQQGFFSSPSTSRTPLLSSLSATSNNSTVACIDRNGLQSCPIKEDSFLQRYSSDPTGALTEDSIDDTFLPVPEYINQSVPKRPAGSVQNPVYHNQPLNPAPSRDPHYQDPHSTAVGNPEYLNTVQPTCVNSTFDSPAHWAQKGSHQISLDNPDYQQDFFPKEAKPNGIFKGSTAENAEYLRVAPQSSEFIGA

As for `CC(C)[C@H](NC(=O)c1cc(-c2cnn3cc(-c4ccc(OCCN5CCCCC5)cc4)cnc23)cs1)C(F)(F)F`, the inhibition in test [1] was 3%. Besides, the fold change (FC) in test [2] and in test [3] was 0 in each case.
With `O=C(N[C@@H](C1CC1)C(F)(F)F)c1cc(-c2cnn3cc(-c4ccc(F)cc4)cnc23)cs1`, the fold change (FC) in test [4] amounted to 0; in test [5] it was 0; in test [6], 0; in test [7], 0.04.
For the compound `CNC(=O)c1ccccc1Oc1nc(Nc2cc(OC)c(OC)c(OC)c2)ncc1Br`, in test [8], the inhibition is 4%.

What is called inhibition is the share of the control response that was lost under treatment.

These data come from ChEMBL document CHEMBL5653631, “A Potent and Selective ULK1 Inhibitor Suppresses Autophagy and Sensitizes Cancer Cells to Nutrient Stress” (iScience, 2018).
